Assay results reported in patent US6090605A, “Purified porcine kidney L-fucose kinase” (The Board of Trustees of the University of Arkansas, priority 1998, dated 2000).

Experiments:
pig kidney fucokinase [1] = target: T1, pig kidney fucokinase (Sus scrofa, UniProt I3LTC2); test: Sugar specificity of purified fucokinase (radiolabeled sugars as phosphate acceptors); format: biochemical; details: for activity as phosphate acceptor (in words): purified enzyme; for Specific Activity: radiolabeled sugar 100 μM as phosphate acceptor
T1 construct: L-Fucokinase was purified to apparent homogeneity from the cytosolic fraction of pig kidney; from tissue; host or cells: pig kidney, cytosolic fraction
T1 sequence (I3LTC2 1-1083): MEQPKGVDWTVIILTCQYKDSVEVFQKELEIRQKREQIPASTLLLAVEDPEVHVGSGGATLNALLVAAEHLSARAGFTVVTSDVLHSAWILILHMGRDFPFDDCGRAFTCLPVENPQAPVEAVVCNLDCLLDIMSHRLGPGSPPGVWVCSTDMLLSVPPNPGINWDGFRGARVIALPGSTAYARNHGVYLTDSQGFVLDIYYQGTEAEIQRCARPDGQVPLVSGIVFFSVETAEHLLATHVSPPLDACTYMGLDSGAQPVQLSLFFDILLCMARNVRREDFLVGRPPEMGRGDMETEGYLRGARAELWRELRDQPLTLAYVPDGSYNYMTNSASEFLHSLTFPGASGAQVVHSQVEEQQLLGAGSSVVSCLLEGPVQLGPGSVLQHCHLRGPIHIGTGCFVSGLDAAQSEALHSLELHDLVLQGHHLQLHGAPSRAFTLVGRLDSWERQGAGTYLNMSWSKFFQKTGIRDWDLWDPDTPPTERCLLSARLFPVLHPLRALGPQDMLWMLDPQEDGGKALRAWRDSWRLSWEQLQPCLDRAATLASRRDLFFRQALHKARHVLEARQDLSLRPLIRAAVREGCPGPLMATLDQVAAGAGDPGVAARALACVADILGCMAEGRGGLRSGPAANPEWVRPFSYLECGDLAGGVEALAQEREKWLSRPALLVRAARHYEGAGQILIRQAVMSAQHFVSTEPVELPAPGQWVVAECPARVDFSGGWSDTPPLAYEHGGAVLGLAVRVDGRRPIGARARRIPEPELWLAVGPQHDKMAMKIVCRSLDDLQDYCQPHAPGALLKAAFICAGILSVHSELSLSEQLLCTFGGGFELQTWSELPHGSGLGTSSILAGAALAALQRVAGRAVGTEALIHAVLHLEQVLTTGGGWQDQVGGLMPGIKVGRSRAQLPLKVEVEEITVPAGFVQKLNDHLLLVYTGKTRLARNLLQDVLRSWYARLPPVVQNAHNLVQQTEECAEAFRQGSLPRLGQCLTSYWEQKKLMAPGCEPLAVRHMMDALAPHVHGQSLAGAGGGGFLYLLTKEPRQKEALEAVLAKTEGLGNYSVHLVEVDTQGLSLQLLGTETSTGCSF
Procedure: (§1) Fucokinase activity was assayed by measuring the production of L-fucose-1-Pfrom [^3 H]L-fucose and ATP. The incubation mixtures contained the following components (final concentrations) in a total volume of 150 μl: L-fucose, 0.1 mM; ATP, 5 mM; MgSO4, 5 mM; Tris-HCl buffer, pH 8.0, 65 mM; and various amounts of enzyme at the different stages of purification. Incubations were at 37° C. for 10 minutes, and reactions were terminated by heating the reaction mixtures in a boiling water bath for 1 minute. The incubation mixtures were then applied to a column of DE-52 contained in a Pasteur pipette, and the column was washed with at least 5 column volumes of 10 mM (NH4)HCO3 to remove the unbound material. The [^3 H]fucose-1-P was then eluted with 500 mM (NH4)HCO3. Aliquots of the eluates were assayed for their radioactive content by subjecting a portion to scintillation counting.
The specificity of the kinase for various sugar substrates was examined in two different ways. In the first set of experiments, various radiolabeled sugars were tested as phosphate acceptors for the purified enzyme using the ion-exchange chromatography method for assay of activity. […] D-Arabinose, which has the same configuration at carbons 1 through 4 as L-fucose, was also a reasonable substrate for phosphorylation, and was about 10% as effective as L-fucose. On the other hand, all of the other sugars were ineffective as phosphate acceptors.

[2] = tested on: pig liver L-fucokinase preparation; details: cited from earlier work
pig kidney fucokinase [3] = target: T1, pig kidney fucokinase; test: Inhibition of [3H]L-fucose phosphorylation by unlabeled monosaccharides; format: biochemical; details: unlabeled monosaccharide 500 μM; radiolabeled L-fucose substrate 100 μM
Procedure: as §1
Although it was possible to get a reasonable assessment of the sugar specificity of the kinase from the above experiment, it was not possible to test sugars such as D-fucose, since these sugars are not available in radioactive form. Thus, these unlabeled sugars were tested for their ability to inhibit the phosphorylation of [^3 H]L-fucose. The rationale for this experiment is that a sugar that inhibits the phosphorylation of L-fucose would probably compete with L-fucose for the phosphorylation (i.e., active) site.

[4] = tested on: pig liver L-fucokinase preparation; details: cited from earlier work; remark: listed apart in the source
pig kidney fucokinase [5] = target: T1, pig kidney fucokinase; test: Inhibition of fucokinase by GDP-L-fucose and other GDP-linked sugars; format: biochemical
Procedure: as §1
It can be seen that the amount of inhibition of fucokinase increased with increasing amounts of GDP-L-fucose, and the Ki for GDP-L-fucose was estimated to be about 10 μM.

SMILES | activity as phosphate acceptor (in words) (pig kidney fucokinase [1]) | Specific Activity (pig kidney fucokinase [1]) | rate of phosphorylation compared with L-fucose (in words) [2] | Relative Activity (%) (pig kidney fucokinase [3]) | phosphorylation of sugar by the about 70-fold purified preparation (in words) [4] | inhibition of the fucokinase (in words) (pig kidney fucokinase [5])
O=C[C@H](O)[C@@H](O)[C@@H](O)[C@H](O)CO [D-galactose] | does not phosphorylate | 0 nmole/mg protein | about the same rate or better | 100% | – | –
O=C[C@H](O)[C@@H](O)[C@H](O)[C@H](O)CO [D-glucose] | does not phosphorylate | 0.3 nmole/mg protein | about the same rate or better | 100% | considerable activity for phosphorylating | –
O=C[C@@H](O)[C@@H](O)[C@H](O)[C@H](O)CO [D-mannose] | does not phosphorylate | 0 nmole/mg protein | about the same rate or better | 100% | – | –
Nc1nc2c(ncn2[C@@H]2O[C@H](COP(=O)(O)OP(=O)(O)OC3O[C@H](CO)[C@@H](O)[C@H](O)[C@H]3O)[C@@H](O)[C@H]2O)c(=O)[nH]1 (stereo partly drawn) [GDP-D-glucose] | – | – | – | – | – | did not inhibit
Nc1nc2c(ncn2[C@@H]2O[C@H](COP(=O)(O)OP(=O)(O)O[C@H]3O[C@H](CO)[C@@H](O)[C@H](O)[C@@H]3O)[C@@H](O)[C@H]2O)c(=O)[nH]1 [GDP-D-mannose] | – | – | – | – | – | did not inhibit
